Data published in patent US6420412B2, “Eprosartan dihydate and a process for its production and formulation” (SmithKline Beecham Corporation, priority 1996, dated 2002).

What was measured:
Assay type in all cases: physicochemical
[1] = Storage stability of the drug substance
Procedure: (§1) Eprosartan is anhydrous, and, by itself, is stable at ambient temperature and humidity, as well as at accelerated conditions (30° C./79% RH or 40° C./75% RH for up to 6 months). […] In the former case where the hydrate is obtained by moistening the drug substance, the hydrated form is not stable, and is generally converted back into the anhydrous form during drying.

[2] = Compactibility in the solid dosage form; settings: compared to the corresponding anhydrous form
[3] = Moisture uptake and hydrate conversion on storage at high humidity
Procedure: as §1

| Structure (SMILES) | stability of hydrate obtained by moistening the drug substance ([1]; no excipient, during drying generally converted back into the anhydrous form) | compactibility in the solid dosage form [2] | stability at accelerated conditions ([1]; 30° C./79% RH or 40° C./75% RH for up to 6 months) | stability ([1]; drug substance by itself, ambient temperature and humidity) | conversion of solid form on storage ([3]; moistened then stored in closed container, or dry powder at relative humidity of 98% or higher, ambient or higher temperatures, 8 days or longer) | moisture pick-up at higher humidities ([3]; typically up to 95% RH) |
| --- | --- | --- | --- | --- | --- | --- |
| CCCCc1ncc(/C=C(\Cc2cccs2)C(=O)O)n1Cc1ccc(C(=O)O)cc1.CS(=O)(=O)O.O.O [dihydrate, (E)-α-[2-n-butyl-1-[(4-carboxyphenyl)methyl]-1H-imidazol-5-yl]methylene-2-thiophenepropionic acid monomethanesulfonate dihydrate] | not stable | more compactible |  |  |  |  |
| CCCCc1ncc(/C=C(\Cc2cccs2)C(=O)O)n1Cc1ccc(C(=O)O)cc1 [Eprosartan, (E)-α-[2-n-butyl-1-[(4-carboxyphenyl)methyl]-1H-imidazol-5-yl]methylene-2-thiophenepropionic acid monomethanesulfonate] |  |  | stable | stable | converts to the hydrated form | does not pick up moisture |
